Test results published in patent US12109184B2, “Personalized methods of treating cancer” (CANCER RESEARCH TECHNOLOGY LIMITED, priority 2020, dated 2024).

Experiments:
Format in all cases: cell-based
[1] = tested on: HCT116, SW480 and MDA-MB-468 cells; assay: Cell counting during cysteine starvation, starvation-resistant cell lines
Protocol: (§1) The base medium formulation contained 0.2 mM L-histidine, 0.4 mM L-isoleucine, 0.4 mM L-leucine, 0.4 mM L-lysine, 0.2 mM L-phenylalanine, 0.4 mM L-threonine, 0.08 mM L-tryptophan, 0.4 mM L-valine, 0.2 mM L-arginine, 2 mM L-glutamine, 0.2 mM L-tyrosine, 0.4 mM L-alanine, 0.3 mM L-proline, 0.15 mM L-glutamic acid, 0.1 mM L-aspartic acid, 0.2 mM L-asparagine, and 0.4 mM glycine.
(§2) DAPI-stained cell nuclei were detected via microscopy.
(§3) AMD1 inhibitor sardomozide/SAM486A, GPX4 inhibitor RSL3, and CSE inhibitor beta-cyano-L-alanine were used.
(§4) For experiments using spermine oxidase (SMOX) and polyamine oxidase (PAOX) inhibitors or MTOB, cells were pre-treated with stated concentrations for 16 hours in complete medium. After pre-treatment, cells were washed in PBS, and treatment was continued in complete or cysteine-free medium for stated times. After treatment was finished, cells were fixed and stained as described above. For experiments using MTA, polyamines, GPX4 and CSE inhibitors, treatment started at the same time as cysteine starvation. For experiments involving hypoxic conditions, cells were seeded in normoxic conditions and allowed to adhere for 24 hours before control and cysteine starvation medium was added and cells were immediately transferred either to a humidified cell culture incubator set to 37° C. in 20% O2 (normoxia), or a hypoxia chamber set to 37° C. in 1% O2 (hypoxia) for the stated times. Cells were fixed immediately and stained as described above.

MDA-MB-231 cells = assay: Steady state metabolite measurements by LC-MS; conditions: medium lacking cysteine, supplement 0.2 mM
Protocol: Metabolomics experiments were performed as follows. Cells were seeded into 6-well plates (5×10^5-1.5×10^6 cells/mL, depending on time-course, triplicate wells per condition) in complete medium and adhered overnight. Cells were washed with PBS, and the relevant experimental media were added for the stated times. Duplicate wells were used for cell counting. Cell counts were used to normalize the volume of lysis solvent prior to metabolite extractions (2×10^6 cells/mL). Cells were washed quickly in PBS, then ice-cold lysis solvent (methanol 50%, acetonitrile 30%, water 20%) was added, and cells were scraped on ice. Lysates were transferred to 1.5 mL tubes on ice, vortexed, then spun by centrifugation at 15,000 rpm at 4° C. for 10 minutes. Supernatants were collected and stored at -80° C. for LC-MS analysis. Prepared samples were analyzed on an LC-MS platform consisting of an […] system and an ExactiveTM mass spectrometer. A Sequant® ZIC®-HILIC column (4.6 mm×150 mm, 3.5 μm) was used to separate the metabolites with the mobile phase using A=0.1% (v/v) formic acid in water and B=0.1% (v/v) formic acid in acetonitrile. A gradient program starting at 20% of A and linearly increasing to 80% at 30 min was used followed by washing (92% of A for 5 mins) and re-equilibration (20% of A for 10 min) steps. The total run time of the method was 45 min. The LC stream was desolvated and ionized in the HESI probe. The ExactiveTM mass spectrometer was operated in full scan mode over a mass range of 70-1,200 m/z at a resolution of 50,000 with polarity switching. The LC-MS raw data was converted into mzML files by using ProteoWizard and imported to MZMine 2.10 for peak extraction and sample alignment. An in-house database including all possible ^13C and ^15N isotopic m/z values of the relevant metabolites was used for the assignment of LCMS signals. Finally the peak areas were used for comparative quantification.

[2] = tested on: breast, colorectal and pancreatic cancer cell lines; assay: Cell counting in complete or cysteine-free medium, cell lines not given; conditions: supplementation during cysteine starvation
Protocol: as §1, §2, §3, §4

[3] = tested on: SW480 and MDA-MB-231 cells; assay: Cell counting, rescue by cysteine precursors during cysteine starvation; conditions: supplement at 0.2 mM
Protocol: HCT116, SW480, MDA-MB-468, MDA-MB-231, AsPC-1, BxPC-3, CFPAC-1, MIAPaCa-2, PANC-1, Panc10.05, SW1990, U-251, LN-18, LN-229, T98G, U-343, A-172 cells were used. Cell lines were authenticated using Short Tandem Repeat (STR) profiling and tested for mycoplasma. Colorectal and breast cancer cell lines were grown in Dulbecco's Modified Eagle Medium (DMEM), pancreatic ductal adenocarcinoma (PDAC) cell lines were grown in Roswell Park Memorial institute (RPMI) 1640. All cell lines were supplemented with penicillin-streptomycin, amphotericin, 2 mM L-glutamine, and 10% fetal bovine serum (FBS). Cells were kept at 37° C. in 5% CO2 in a humidified cell culture incubator. A formulated medium lacking cysteine, cystine, methionine, and serine was used as a base for creating experimental media. The base medium formulation contained 0.2 mM L-histidine, 0.4 mM L-isoleucine, 0.4 mM L-leucine, 0.4 mM L-lysine, 0.2 mM L-phenylalanine, 0.4 mM L-threonine, 0.08 mM L-tryptophan, 0.4 mM L-valine, 0.2 mM L-arginine, 2 mM L-glutamine, 0.2 mM L-tyrosine, 0.4 mM L-alanine, 0.3 mM L-proline, 0.15 mM L-glutamic acid, 0.1 mM L-aspartic acid, 0.2 mM L-asparagine, and 0.4 mM glycine. The base medium was supplemented with 10% dialyzed FBS, penicillin-streptomycin, and amphotericin. To ensure an adequate supply of vitamin B6 (a crucial co-factor for de novo cysteine synthesis), base medium was supplemented with additional 20 μM vitamin B6. The control experimental medium was the base medium supplemented with 0.4 mM L-cysteine, 0.2 mM L-methionine, and 0.4 mM L-serine. The cysteine starvation (−Cys) experimental medium was base medium supplemented with 0.2 mM L-methionine and 0.4 mM L-serine.
Cells were seeded at 6×10^4 cells per well into 24-well plates (triplicate wells per condition) in the relevant complete medium and adhered for a full 24-hour period. A ‘time-0’ plate was included to record the starting cell number to calculate relative cell numbers. Cells were washed once with phosphate-buffered saline (PBS) before receiving experimental medium containing or lacking the specified amino acids, metabolites, or drugs. At the stated time-points the medium was removed, cells were fixed in a 4% formalin-PBS solution. Cells were then washed and stored in PBS before staining with 4′,6-diamidino-2-phenylindole (DAPI)-Triton™ X100-PBS solution for 1 hour, followed by storage in PBS at 4° C. until further analysis. DAPI-stained cell nuclei were detected via microscopy.
Homocysteine, cystathionine, glutathione, putrescine, spermine, spermidine, GPX4 inhibitor ML210, SMOX inhibitor MDL 72527, PAOX inhibitor diminazene aceturate, ferrostatin-1 and erastin were used. AMD1 inhibitor sardomozide/SAM486A, GPX4 inhibitor RSL3, and CSE inhibitor beta-cyano-L-alanine were used. […]

[4] = tested on: MTAP-deleted HCT116 cells; assay: Cell counting during cysteine starvation, MTAP-deleted HCT116
Source text: [NT] Successfully transfected cells were selected with puromycin and grown as clonal colonies. Clones were selected based initially on MTA efflux measured by liquid chromatography mass spectrometry (LC-MS). Clones with greatest MTA efflux were selected, and methylthioadenosine phosphorylase knockout (MTAP-KO) was then confirmed by western blot. MTAP-KO HCT116 cells were transfected with pCMV-Hygro-MTAP and pCMV-Hygro-negative control vector, selected using hygromycin B, and grown as clonal colonies. Clones were selected based initially on MTA efflux measured by LC-MS. Clones with low MTA efflux were selected, then MTAP re-expression was confirmed by western blot. […] DAPI-stained cell nuclei were detected via microscopy. […] For experiments using spermine oxidase (SMOX) and polyamine oxidase (PAOX) inhibitors or MTOB, cells were pre-treated with stated concentrations for 16 hours in complete medium. After pre-treatment, cells were washed in PBS, and treatment was continued in complete or cysteine-free medium for stated times. After treatment was finished, cells were fixed and stained as described above. For experiments using MTA, polyamines, GPX4 and CSE inhibitors, treatment started at the same time as cysteine starvation. For experiments involving hypoxic conditions, cells were seeded in normoxic conditions and allowed to adhere for 24 hours before control and cysteine starvation medium was added and cells were immediately transferred either to a humidified cell culture incubator set to 37° C. in 20% O2 (normoxia), or a hypoxia chamber set to 37° C. in 1% O2 (hypoxia) for the stated times. Cells were fixed immediately and stained as described above.

[5] = tested on: MDA-MB-231, MIAPaCa-2 and PANC-1 cells; assay: Cell counting during cysteine starvation, starvation-sensitive cell lines
Protocol: as §1, §2, §3, §4

[6] = tested on: MTAP-expressing HCT116 cells; assay: Cell counting during cysteine starvation, MTAP-expressing HCT116; conditions: SMOX inhibitor, PAOX inhibitor or MTOB supplementation
Source text: [NT] Successfully transfected cells were selected with puromycin and grown as clonal colonies. Clones were selected based initially on MTA efflux measured by liquid chromatography mass spectrometry (LC-MS). Clones with greatest MTA efflux were selected, and methylthioadenosine phosphorylase knockout (MTAP-KO) was then confirmed by western blot. MTAP-KO HCT116 cells were transfected with pCMV-Hygro-MTAP and pCMV-Hygro-negative control vector, selected using hygromycin B, and grown as clonal colonies. Clones were selected based initially on MTA efflux measured by LC-MS. Clones with low MTA efflux were selected, then MTAP re-expression was confirmed by western blot. […] DAPI-stained cell nuclei were detected via microscopy. For experiments using spermine oxidase (SMOX) and polyamine oxidase (PAOX) inhibitors or MTOB, cells were pre-treated with stated concentrations for 16 hours in complete medium. After pre-treatment, cells were washed in PBS, and treatment was continued in complete or cysteine-free medium for stated times. After treatment was finished, cells were fixed and stained as described above. For experiments using MTA, polyamines, GPX4 and CSE inhibitors, treatment started at the same time as cysteine starvation. For experiments involving hypoxic conditions, cells were seeded in normoxic conditions and allowed to adhere for 24 hours before control and cysteine starvation medium was added and cells were immediately transferred either to a humidified cell culture incubator set to 37° C. in 20% O2 (normoxia), or a hypoxia chamber set to 37° C. in 1% O2 (hypoxia) for the stated times. Cells were fixed immediately and stained as described above.

N#CC[C@H](N)C(=O)O [beta-cyano-L-alanine]
response to CSE inhibition during cysteine starvation ([1]; HCT116, CSE inhibitor 0.5 mM or 1 mM, 48 h): only a modest response | sensitivity to cysteine starvation ([1]; SW480 and MDA-MB-468, CSE inhibitor 0.5 mM or 1 mM, 48 h): increased the sensitivity to cysteine starvation

N[C@@H](CCSC[C@H](N)C(=O)O)C(=O)O [cystathionine]
intracellular cysteine levels (MDA-MB-231 cells): moderate increases | intracellular homocysteine and cystathionine levels (MDA-MB-231 cells): significantly increased | intracellular γ-glutamylcysteine and GSH levels (MDA-MB-231 cells): more marked increases | rescue from cysteine starvation-induced cell death (summary in discussion) [2]: rescued from starvation-induced cell death | rescue of survival/proliferation during cysteine starvation [3]: substantial rescue

CC(=O)NCC(=O)O.CC(=O)NCC(=O)O.N=C(N)c1ccc(N=NNc2ccc(C(=N)N)cc2)cc1 [diminazene aceturate]
cell survival and growth under polyamine treatment concurrent with cysteine starvation ([1]; SMOX and PAOX inhibitors with spermidine or spermine, −Cys): restored HCT116, SW480, and MDA-MB-468 cell survival and growth | advantage during cysteine starvation ([1]; SMOX or PAOX inhibitor, 16 h pre-treatment then −Cys): little or no additional advantage | cell survival during cysteine starvation ([4]; SMOX inhibitor, PAOX inhibitor or MTOB supplementation): rescued cell survival | cell death during cysteine starvation ([5]; SMOX inhibitor 50 μM or PAOX inhibitor 10, 40, 80 μM, 16 h pre-treatment then −Cys): prevented cell death | impact on cell survival during cysteine starvation [6]: little impact

CCOC(=O)c1ccc(NC2CCCCC2)c(N)c1 [ferrostatin, ferrostatin-1]
impact on response to cysteine starvation ([1]; more resistant cells, ferrostatin 1 μM, 24 h and 72 h): little impact | rescue of increased sensitivity to cysteine starvation ([4]; ferrostatin): rescued | proliferation during cysteine starvation ([5]; ferrostatin 1 μM): did not restore proliferation | cell death in response to cysteine starvation ([5]; sensitive cells, ferrostatin 1 μM, 24 h and 72 h): prevented cell death
